Test results published in patent US7491701B2, “Peptides that bind to HSP90 proteins” (Boys Town National Research Hospital, priority 2004, dated 2009).
Where no end group is shown, it is not given here.

Key:
[1] = background; cited from earlier work
[2] = background; geldanamycin Phase I clinical trials; cited from earlier work
beta-COP = assay: Binding of beta-COP from mouse brain extract to Sulfolink-peptide affinity matrix, western analysis; details: FIG. 1B; for amount of beta-COP binding the peptide matrix: western with antibody to beta-COP; for amount of beta-COP bound by the di-serine control relative to the parent di-lysine peptide matrix: western, 672 BC1 vs OTOF CTERM E47, 670 CC1 vs OTOF CTERM E48
Protocol: Antibody to beta-COP was obtained from Oncogene Research Products (EMD Biosciences, Ind.) (Product No. PC175) and used at a 1:1500 dilution. Antibody to mouse Hsp90α was obtained from Stressgen (Victoria, Canada), Product No. SPS-771 and used at a 1:1000 dilution.
(§1) Sulfolink-peptide affinity columns were synthesized using the Sulpholink Kit (Pierce Biotechnology, Inc., Rockford, Ill., Product No. 44895) according to their protocol. Peptides were stored at 4° C. in a lyophilized state in a sealed desiccator. Approximately 2 mg of peptide is weighed and suspended in 0.4 ml of DMSO. This peptide solution is immediately diluted into 2 ml of coupling buffer and mixed (100 μl is removed for quantization) then added to 4 ml of a 50% slurry of Sulfolink gel equilibrated in coupling buffer in a small plastic column. The combination is mixed for 15 minutes at room temperature by rotation. The mixture is further incubated for 30 minutes at room temperature without mixing. The column is washed with coupling buffer, then blocked with freshly made 0.5 M cysteine, further washed with a Wash buffer. The peptide affinity matrix was removed from the column to a 50 ml conical tube and stored as a 50% slurry in PBS containing 0.05% sodium azide at 4° C.
Total mouse brain from deeply anthesized adult mice is excised and flash frozen in liquid nitrogen and stored at −80° C. The frozen brain is pulverized in a mortar and pestle under liquid nitrogen and suspended in TNGD (TRIS 50 mM pH7.5, NaCl 75 mM, EGTA 10 mM, EDTA 2 mM) with protease inhibitors (10 μl/ml of protease inhibitor cocktail for mammalian cells, Sigma Chemical Co. No. P8340) at 1 ml/100 mg of tissue. This mixture is homogenized in a Potter-Elvehjem Teflon glass homogenizer on ice. The homogenate is centrifuged for 10 minutes at 4° C. in an IEC minifuge at 13,200 RPM. The pellet is discarded. The supernatant is used immediately or frozen and stored at −80° C.
All steps of protein purification were done at 4° C. in a Handee Spin Cup Column (Pierce Biotechnology, Inc., Rockford, Ill., Product No. 69700) in the presence of protease inibitor (10 μl/ml of protease inhibitor cocktail for mammalian cells, Sigma Chemical Co. No. P8340). Fifty μl of a 50% slurry of Sulfolink-peptide was washed five times with 0.4 ml of TNGD. Mouse brain extract supernatant (100 μl) was allowed to absorb to the gel by mixing by rotation for 30 minutes. Following absorption the gel is washed five times with 0.4 ml TNGD. Specific elution is described in the results.
Protein samples are made 1× with ImmunoPure Lane Marker Non-Reducing Sample Buffer (5×) (Pierce Biotechnology) and heated for 5 minutes at 95° C. Samples are separated on a 4-20% Linear Gradient Ready Gel (BIO-RAD Laboratories, Hercules, Calif., Product No. 161-1105). Polyacrylamide gels are stained with BIORAD Silver Stain Plus Kit (No. 161-0449) or Bio-Safe Coomassie Stain or electro-blotted to PVDF membrane (BIO-RAD) for Western blot analysis, according to directions provided by the manufacturer. Specific antibody binding is detected using ECL Western Blotting System (Amersham Biosciences Corp., Piscataway, N.J., Product No. RPN2108). Molecular weight standards used were the BIO-RAD Precision Protein Standards, Prestained, Broad Range (Product No. 161-0372). Chemiluminecence is detected using Kodak Biomax ML Scientific Imaging Film (Product No. 868-9358).
Mouse brain extracts were absorbed to the four peptide matrix columns as described in the methods. Column matrix was transferred to PCR tubes and made 1× with SDS buffer and heated for 5 minutes at 95° C. After heating the samples were centrifuged for 1 minute at 300×g and the supernatant separated by SDS gel electrophoresis on two separate gels.

recombinant human Hsp90α = biological target: T1, recombinant human Hsp90α (Homo sapiens, UniProt P07900); assay: Binding of purified recombinant human Hsp90α to peptide affinity columns, 600 mM NaCl elution, silver stain; details: for binding of Hsp90α to the peptide affinity column: 400 ng recombinant human Hsp90α, BSA-preabsorbed column, 4° C., silver stain, FIG. 5; for protein corresponding to Hsp90 molecular weight eluted with 600 mM NaCl, share of protein added: scan of silver stained gel, elution with TNGD + 600 mM NaCl
T1 construct: purchased Stressgen SPP-776
Protocol: Fifty μl of 50% slurry of OTOF CTERM E47 and OTOF CTERM E48 Sulfolink affinity matrix were equilibrated with four washes of 0.4 ml of TNGD buffer in Handee Spin Cup Columns (Pierce, Rockford). The columns was preabsorbed with 100 μl of 10% BSA for 30 minutes at 4° C. and mixed by rotation. The columns were then washed five times with 0.4 ml of TNGD. Four hundred (400) ng of recombinant human Hsp90α (Stressgen SPP-776, Lot No. B201401) in 100 μl of TNGD was added to each column for 30 minutes at 4° C. and mixed by rotation. The unabsorbed protein was removed by centrifugation. The columns were washed five times with 0.4 ml of TNGD, then eluted with 100 μl TNGD+600 mM NaCl. Samples were analyzed on a 4-20% SDS-PAGE gel followed by silver staining using a BIORAD Silver Stain Plus kit (No. 161-0449) as show in FIG. 5. […] The amount of protein added and eluted was determined by scanning the silver stained gel using a Alpha Imager 2200 gel imaging system.

Hsp90α (p97, HS9A_MOUSE) = biological target: T2, Hsp90α (p97, HS9A_MOUSE) (Mus musculus, UniProt P07901); assay: Binding of mouse brain extract protein p97 (identified as Hsp90α) to Sulfolink-peptide affinity matrix, SDS-PAGE Coomassie stain; details: Coomassie stained gel, FIG. 1A
T2 construct: Total mouse brain from deeply anthesized adult mice is excised and flash frozen in liquid nitrogen; from tissue; host or cells: adult mouse brain, 13,200 rpm supernatant of homogenate
Protocol: as §1, with “The peptide affinity matrix was removed from the column to a 50 ml conical tube and stored as a 50% slurry in PBS containing 0.05% sodium azide at 4° C.” left out
Protein samples are made 1× with ImmunoPure Lane Marker Non-Reducing Sample Buffer (5×) (Pierce Biotechnology) and heated for 5 minutes at 95° C. Samples are separated on a 4-20% Linear Gradient Ready Gel (BIO-RAD Laboratories, Hercules, Calif., Product No. 161-1105). […] Specific antibody binding is detected using ECL Western Blotting System (Amersham Biosciences Corp., Piscataway, N.J., Product No. RPN2108). […] Chemiluminecence is detected using Kodak Biomax ML Scientific Imaging Film (Product No. 868-9358). […]

Compound	water / aqueous solubility [1]	hepatotoxicity [2]	amount of beta-COP binding the peptide matrix (beta-COP)	binding of Hsp90α to the peptide affinity column (recombinant human Hsp90α)	protein corresponding to Hsp90 molecular weight eluted with 600 mM NaCl, share of protein added (recombinant human Hsp90α)	amount of beta-COP bound by the di-serine control relative to the parent di-lysine peptide matrix (beta-COP)	also measured
C=CCNC1=C2C[C@@H](C)C[C@H](OC)[C@H](O)[C@@H](C)/C=C(\C)[C@H](OC(N)=O)[C@@H](OC)/C=C\C=C(/C)C(=O)NC(=CC1=O)C2=O [Peptide 17-AAG, 17-(allylamino)-17-desmethoxygeldanamycin]	limited aqueous solubility	reduced hepatotoxicity	–	–	–	–	–
COC1=C2C[C@@H](C)C[C@H](OC)[C@H](O)[C@@H](C)/C=C(\C)[C@H](OC(N)=O)[C@@H](OC)/C=C\C=C(/C)C(=O)NC(=CC1=O)C2=O [geldanamycin]	poor water solubility	hepatotoxicity	–	–	–	–	–
CYSLPGYLAKKILGA (also: coupled to Sulfolink matrix) [OTOF CTERM E47, C-terminus 14 amino acids of the brain otoferlin isoform with added N-terminal cysteine, coupled to Sulfolink matrix]	–	–	similar	does not bind	no eluted protein was detected	–	amount of beta-COP binding the peptide matrix (beta-COP; listed as E47): specific binding
CYSLPGYLASSILGA (peptide corresponding to the C-terminus of an otoferlin isoform with di-lysine replaced by di-serine) [672 BC1, E47 peptide control with the di-lysine replaced with di-serine, reference compound]	–	–	–	–	–	about half	–
CYSLPGYMVKKLLGA (also: coupled to Sulfolink matrix) [OTOF CTERM E48, C-terminus 14 amino acids of the cochlear otoferlin isoform with added N-terminal cysteine, coupled to Sulfolink matrix]	–	–	similar	specifically binds	Approximately 10%	–	amount of beta-COP binding the peptide matrix (beta-COP; listed as E48): specific binding; binding of a protein at approximately 97 kilo-daltons (p97, Hsp90α) to the peptide matrix (Hsp90α (p97, HS9A_MOUSE)): higher levels; binding of a protein at approximately 97 kilo-daltons (p97, Hsp90α) to the peptide matrix (Hsp90α (p97, HS9A_MOUSE); listed as E48): specific binding
CYSLPGYMVSSLLGA (peptide corresponding to the C-terminus of an otoferlin isoform with di-lysine replaced by di-serine) [670 CC1, E48 peptide control with the di-lysine replaced with di-serine, reference compound]	–	–	–	–	–	about a tenth	–
